Measured values taken from PubChem BioAssay AID2060512 (Molecular Pharmacology Branch, DTP, NCI, 2025).

System: 186277-243-T-J2-PDC complex spheroid viability
Assay: Anticancer human tumor 186277-243-T-J2-PDC patient-derived colon adenocarcinoma cell line growth inhibition [GQUAD]
Conditions: for IC50: curve of first compound; for viability, T/C: stronger effect = lower value
Source text: DNA G-quadruplex Stabilizer Agents in Combinations in Complex Spheroids
A high-throughput screen of multi-cell type tumor spheroids was designed to identify active combinations of DNA G-quadruplex stabilizer agents and targeted small molecules. Complex spheroids include a stromal component modeled by human endothelial cells (HUVEC) and fibroblasts modeled by human mesenchymal stem cells (MSCs). The concentration ranges selected for each drug and investigational agent were based upon clinically achievable concentrations if the clinical Cmax of the agent was known.
Compounds. The drugs and investigational agents: pidnarulex (CX-5461; NSC782164), APTO-253 (NSC789042), BRACO-19 (NSC847499), peposertib (NSC802822), ceralasertib (NSC780249), elimusertib (NSC800525), camonsertib (NSC841442), AZD-1390 (NSC803789), olaparib (NSC753686), talazoparib (NSC767125), ART-558 (NSC835418), sotorasib (NSC818433), MRTX-1133 (NSC836407), SN-38 (NSC673596), topotecan (NSC609699), etoposide (NSC141540), doxorubicin (NSC123127), gemcitabine (NSC613327), 5-fluorouracil (NSC19893), paclitaxel (NSC125973), vemurafenib (NSC761431), panobinostat (NSC761190), R-306465 (JNJ-16241199; NSC773264), adavosertib (NSC754352), TP-3654 (NSC805149), carboplatin (NSC241240), KSQ-4279 (NSC840948), and staurosporine (NSC755774) were obtained from the National Cancer Institute (NCI) Developmental Therapeutics Program Chemical Repository (34). The FDA-approved anticancer drug set is available from the NCI Developmental Therapeutics Program. […] The stock solutions were prepared in dimethyl sulfoxide (DMSO, Sigma-Aldrich, St. Louis, MO, cat. D2650) at 800-fold the tested concentration and stored at -70 degrees C prior to their use. All drugs and investigational agents were tested over a range starting from a high concentration at or near the clinical Cmax and decreasing in half-log increments. If the clinical Cmax for an agent had not been determined, the highest concentration tested was 10 microM.
2.3 Cell Culture. All cells were maintained in an incubator at 37 degrees C and 5% CO2 with 95% humidity. The PDC lines were cultured according to standard operating procedures established by the NCI PDMR. All PDCs were thawed and cultured in Matrigel-coated flasks prepared with a working solution of 1X Ham's F-12 nutrient mix, without supplementation (Invitrogen, cat. 11765054), 100 U/mL penicillin-streptomycin (Invitrogen, cat. 15140122), and 2.5% Matrigel (Corning Inc., cat. 354248) for the first three passages. The 857933-349-R-J2-PDC line was cultured in 6C/Colon 1B media, which includes advanced DMEM/F-12 (Thermo Fisher Scientific, cat. 12634028), 10 mM HEPES (Thermo Fisher Scientific, cat. 15630080), 1X GlutaMAX supplement (Thermo Fisher Scientific, cat. 35050061), 0.1 mg/mL primocin (InvivoGen, cat. ant-pm-2), 10% defined fetal bovine serum, heat inactivated (HyClone Laboratories Inc., cat. SH30070.03HI), 50% L-WRN conditioned media (ATCC, cat. CRL-3276), 1.25 mM N-Acetyl-L-cysteine (Sigma-Aldrich, cat. A9165), 10 mM nicotinamide (Sigma-Aldrich, cat. N0636), 1X B-27 supplement (Thermo Fisher Scientific, cat. 17504044), 1X N-2 supplement (Thermo Fisher Scientific, cat. 17502048), 10 microM Y-27632 dihydrochloride (Tocris Bioscience, cat. 1254), and 50 ng/mL human EGF recombinant protein (Thermo Fisher Scientific, cat. PHG0311). The 485176-168-R4-J1-PDC line was cultured in Panc media, which includes all 6C/Colon 1B media components plus 100 ng/mL human FGF-10 (Thermo Fisher Scientific, cat. 100-26), 500 nM SB-431542 (Selleckchem, cat. S1067), and gastrin (Tocris, cat. 3006).
[…]

[1] = second compound 0.0316 µM, first compound 0.0316 µM
[2] = second compound 0.0316 µM, first compound 0.1 µM
[3] = second compound 0.0316 µM, first compound 0.316 µM
[4] = second compound 0.0316 µM, first compound 1 µM
[5] = second compound 0.0316 µM, first compound 3.16 µM
[6] = second compound 0.0316 µM, first compound 10 µM
[7] = second compound 0.1 µM, first compound 0.0316 µM
[8] = second compound 0.1 µM, first compound 0.1 µM
[9] = second compound 0.1 µM, first compound 0.316 µM
[10] = second compound 0.1 µM, first compound 1 µM
[11] = second compound 0.1 µM, first compound 3.16 µM
[12] = second compound 0.1 µM, first compound 10 µM
[13] = second compound 0.316 µM, first compound 0.0316 µM
[14] = second compound 0.316 µM, first compound 0.1 µM
[15] = second compound 0.316 µM, first compound 0.316 µM
[16] = second compound 0.316 µM, first compound 1 µM
[17] = second compound 0.316 µM, first compound 3.16 µM
[18] = second compound 0.316 µM, first compound 10 µM
[19] = second compound 1 µM, first compound 0.0316 µM
[20] = second compound 1 µM, first compound 0.1 µM
[21] = second compound 1 µM, first compound 0.316 µM
[22] = second compound 1 µM, first compound 1 µM
[23] = second compound 1 µM, first compound 3.16 µM
[24] = second compound 1 µM, first compound 10 µM
[25] = second compound 3.16 µM, first compound 0.0316 µM
[26] = second compound 3.16 µM, first compound 0.1 µM
[27] = second compound 3.16 µM, first compound 0.316 µM
[28] = second compound 3.16 µM, first compound 1 µM
[29] = second compound 3.16 µM, first compound 3.16 µM
[30] = second compound 3.16 µM, first compound 10 µM
[31] = second compound 10 µM, first compound 0.0316 µM
[32] = second compound 10 µM, first compound 0.1 µM
[33] = second compound 10 µM, first compound 0.316 µM
[34] = second compound 10 µM, first compound 1 µM
[35] = second compound 10 µM, first compound 3.16 µM
[36] = second compound 10 µM, first compound 10 µM
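Further: spheroids exposed to drugs for 7 days.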
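Wherever viability, T/C is given: 100% = DMSO vehicle control viability.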

CC(C)(O)C1CCC(Nc2ccc3ncc(-c4cccc(C(F)(F)F)c4)n3n2)CC1 (centres undefined) + Cc1[nH]c2ccc(F)cc2c1-c1nc2c3cccnc3c3ncccc3c2[nH]1
IC50 (second compound 0.0316 µM): 2.55 µM
IC50 (second compound 0.1 µM): 3.84 µM
IC50 (second compound 0.316 µM): 2.87 µM
IC50 (second compound 1 µM): 2.75 µM
IC50 (second compound 3.16 µM): 2.45 µM
IC50 (second compound 10 µM): 2.19 µM
viability, T/C [1]: 105%
viability, T/C [2]: 87.1%
viability, T/C [3]: 86.5%
viability, T/C [4]: 80.9%
viability, T/C [5]: 42.2%
viability, T/C [6]: 29.2%
viability, T/C [7]: 100%
viability, T/C [8]: 103%
viability, T/C [9]: 78.8%
viability, T/C [10]: 83.3%
viability, T/C [11]: 49.8%
viability, T/C [12]: 32.1%
viability, T/C [13]: 90%
viability, T/C [14]: 110%
viability, T/C [15]: 97.3%
viability, T/C [16]: 91.8%
viability, T/C [17]: 46.1%
viability, T/C [18]: 32.6%
viability, T/C [19]: 98.8%
viability, T/C [20]: 97%
viability, T/C [21]: 90.5%
viability, T/C [22]: 107%
viability, T/C [23]: 41.7%
viability, T/C [24]: 45%
viability, T/C [25]: 95.6%
viability, T/C [26]: 115%
viability, T/C [27]: 107%
viability, T/C [28]: 90.9%
viability, T/C [29]: 37.9%
viability, T/C [30]: 38.6%
viability, T/C [31]: 91%
viability, T/C [32]: 111%
viability, T/C [33]: 113%
viability, T/C [34]: 87.4%
viability, T/C [35]: 29.4%
viability, T/C [36]: 35.3%

Cc1cccc(N(C)C(=O)C2C(O)CCN2c2nc(C)cc(C(F)(F)F)c2C#N)c1 (centres undefined) + Cc1cnc(CNC(=O)c2c(=O)c3ccc(N4CCCN(C)CC4)nc3n3c2sc2ccccc23)cn1
IC50 (second compound 0.0316 µM): > 10 µM
IC50 (second compound 0.1 µM): > 10 µM
IC50 (second compound 0.316 µM): > 10 µM
IC50 (second compound 1 µM): > 10 µM
IC50 (second compound 3.16 µM): < 0.0316 µM
IC50 (second compound 10 µM): < 0.0316 µM
viability, T/C [1]: 107%
viability, T/C [2]: 110%
viability, T/C [3]: 109%
viability, T/C [4]: 100%
viability, T/C [5]: 102%
viability, T/C [6]: 117%
viability, T/C [7]: 92.8%
viability, T/C [8]: 93.3%
viability, T/C [9]: 97.4%
viability, T/C [10]: 105%
viability, T/C [11]: 94.8%
viability, T/C [12]: 78.8%
viability, T/C [13]: 73%
viability, T/C [14]: 84.1%
viability, T/C [15]: 75.1%
viability, T/C [16]: 71.7%
viability, T/C [17]: 76.6%
viability, T/C [18]: 88.5%
viability, T/C [19]: 51.6%
viability, T/C [20]: 70.4%
viability, T/C [21]: 68.6%
viability, T/C [22]: 59.5%
viability, T/C [23]: 64.9%
viability, T/C [24]: 65%
viability, T/C [25]: 42.2%
viability, T/C [26]: 52.2%
viability, T/C [27]: 47.9%
viability, T/C [28]: 47.1%
viability, T/C [29]: 52.9%
viability, T/C [30]: 51.9%
viability, T/C [31]: 45.3%
viability, T/C [32]: 45.9%
viability, T/C [33]: 38%
viability, T/C [34]: 41.6%
viability, T/C [35]: 53.1%
viability, T/C [36]: 51.4%
